Data reported in ChEMBL document CHEMBL3991601, “The target landscape of clinical kinase drugs” (Science, 2017).
Active and inactive are the calls of the source. Unless noted, the calls are words filed in the database; no cut-off is given here.

How the values were obtained:
[1] = biological target: Mast/stem cell growth factor receptor Kit (Homo sapiens, UniProt P10721)
[2] = biological target: T1, Uncharacterized protein FLJ45252 (Homo sapiens, UniProt Q6ZSR9)
T1 sequence (Q6ZSR9 whole entry): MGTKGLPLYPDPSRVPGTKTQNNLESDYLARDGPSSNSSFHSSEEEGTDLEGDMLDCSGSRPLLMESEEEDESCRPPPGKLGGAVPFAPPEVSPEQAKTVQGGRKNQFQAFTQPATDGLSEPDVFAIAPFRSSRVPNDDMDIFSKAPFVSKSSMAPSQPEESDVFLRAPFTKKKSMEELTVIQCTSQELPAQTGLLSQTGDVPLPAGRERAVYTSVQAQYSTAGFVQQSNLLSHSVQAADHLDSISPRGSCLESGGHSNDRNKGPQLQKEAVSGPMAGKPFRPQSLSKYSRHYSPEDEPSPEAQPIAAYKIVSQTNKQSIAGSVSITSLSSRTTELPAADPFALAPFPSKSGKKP

[3] = biological target: 5'-AMP-activated protein kinase subunit gamma-2 (Homo sapiens, UniProt Q9UGJ0)
[4] = biological target: Cyclin-dependent kinase 9 (Homo sapiens, UniProt P50750)
[5] = biological target: Cyclin-dependent kinase 18 (Homo sapiens, UniProt Q07002)
Actin-related protein 3 = Actin-related protein 3 (Homo sapiens, UniProt P61158)

Sequence of 5'-AMP-activated protein kinase subunit gamma-2 (Q9UGJ0 whole entry): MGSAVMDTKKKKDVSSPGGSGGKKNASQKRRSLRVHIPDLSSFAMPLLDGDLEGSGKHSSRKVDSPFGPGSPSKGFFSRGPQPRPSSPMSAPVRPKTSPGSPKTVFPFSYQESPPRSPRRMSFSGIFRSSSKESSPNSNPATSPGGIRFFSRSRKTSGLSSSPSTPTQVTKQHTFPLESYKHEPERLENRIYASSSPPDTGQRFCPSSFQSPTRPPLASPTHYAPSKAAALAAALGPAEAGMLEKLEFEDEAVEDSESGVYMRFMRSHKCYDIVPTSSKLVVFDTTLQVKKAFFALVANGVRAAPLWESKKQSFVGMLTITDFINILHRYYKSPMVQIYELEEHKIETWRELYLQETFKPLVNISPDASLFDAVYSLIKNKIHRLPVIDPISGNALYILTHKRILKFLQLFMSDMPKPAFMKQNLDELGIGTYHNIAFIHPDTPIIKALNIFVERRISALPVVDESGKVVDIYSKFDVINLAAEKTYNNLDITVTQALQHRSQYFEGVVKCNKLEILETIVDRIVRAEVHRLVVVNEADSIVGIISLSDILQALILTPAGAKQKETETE
Sequence of Cyclin-dependent kinase 18 (Q07002 whole entry): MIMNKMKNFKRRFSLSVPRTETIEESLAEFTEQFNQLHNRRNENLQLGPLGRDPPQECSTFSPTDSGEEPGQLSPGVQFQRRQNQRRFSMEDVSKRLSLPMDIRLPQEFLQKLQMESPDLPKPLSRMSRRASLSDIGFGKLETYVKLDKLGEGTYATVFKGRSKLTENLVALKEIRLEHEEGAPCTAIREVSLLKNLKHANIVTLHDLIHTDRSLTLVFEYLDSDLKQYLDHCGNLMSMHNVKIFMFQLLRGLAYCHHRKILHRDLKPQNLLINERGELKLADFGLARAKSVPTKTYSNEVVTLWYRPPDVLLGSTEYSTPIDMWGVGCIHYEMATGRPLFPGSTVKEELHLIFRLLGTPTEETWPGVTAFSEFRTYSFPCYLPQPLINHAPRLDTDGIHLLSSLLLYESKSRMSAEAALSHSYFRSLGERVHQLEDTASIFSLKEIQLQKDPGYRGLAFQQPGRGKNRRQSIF
Sequence of Mast/stem cell growth factor receptor Kit (P10721 whole entry): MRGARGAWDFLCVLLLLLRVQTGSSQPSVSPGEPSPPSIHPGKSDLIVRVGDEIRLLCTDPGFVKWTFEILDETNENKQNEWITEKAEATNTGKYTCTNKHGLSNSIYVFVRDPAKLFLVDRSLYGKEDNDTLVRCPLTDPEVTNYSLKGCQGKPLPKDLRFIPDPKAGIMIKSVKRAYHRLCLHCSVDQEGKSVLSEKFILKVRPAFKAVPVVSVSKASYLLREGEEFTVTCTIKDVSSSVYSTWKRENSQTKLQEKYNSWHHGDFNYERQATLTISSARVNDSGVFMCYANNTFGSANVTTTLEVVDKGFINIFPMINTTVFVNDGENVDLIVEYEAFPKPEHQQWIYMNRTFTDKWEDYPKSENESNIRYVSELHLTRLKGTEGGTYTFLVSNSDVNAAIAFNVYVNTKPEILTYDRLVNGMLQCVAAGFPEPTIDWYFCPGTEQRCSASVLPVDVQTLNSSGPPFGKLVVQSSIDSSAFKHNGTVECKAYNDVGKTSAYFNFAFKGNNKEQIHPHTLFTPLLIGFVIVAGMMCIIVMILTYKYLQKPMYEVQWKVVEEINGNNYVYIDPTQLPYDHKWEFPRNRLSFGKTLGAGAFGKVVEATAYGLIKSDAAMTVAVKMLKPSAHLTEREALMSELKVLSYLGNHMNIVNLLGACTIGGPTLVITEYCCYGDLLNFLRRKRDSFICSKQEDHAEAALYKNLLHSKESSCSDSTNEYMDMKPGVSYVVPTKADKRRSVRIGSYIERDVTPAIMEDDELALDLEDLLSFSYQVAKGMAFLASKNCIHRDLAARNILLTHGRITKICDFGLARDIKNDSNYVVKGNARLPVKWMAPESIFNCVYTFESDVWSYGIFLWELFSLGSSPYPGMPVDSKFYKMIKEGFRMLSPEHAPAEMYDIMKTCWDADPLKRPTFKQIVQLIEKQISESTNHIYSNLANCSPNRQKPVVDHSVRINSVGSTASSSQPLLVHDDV
Sequence of Cyclin-dependent kinase 9 (P50750 whole entry): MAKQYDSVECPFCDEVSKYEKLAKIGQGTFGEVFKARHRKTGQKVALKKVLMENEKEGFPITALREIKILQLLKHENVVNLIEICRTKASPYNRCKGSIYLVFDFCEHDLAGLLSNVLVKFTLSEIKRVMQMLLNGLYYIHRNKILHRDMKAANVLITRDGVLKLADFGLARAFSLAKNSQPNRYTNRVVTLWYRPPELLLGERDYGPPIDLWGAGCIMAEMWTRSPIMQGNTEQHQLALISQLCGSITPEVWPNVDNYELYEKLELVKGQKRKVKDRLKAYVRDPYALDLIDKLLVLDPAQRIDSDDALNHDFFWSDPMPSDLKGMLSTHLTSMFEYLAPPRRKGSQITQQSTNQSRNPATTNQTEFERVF

Row | SMILES | Kd [2] | Kd [3] | further results
1 | CCN1CCN(Cc2ccc(-c3cc4c(N[C@H](C)c5ccccc5)ncnc4[nH]3)cc2)CC1 [AEE-788] |  |  | Kd [1]: > 30 µM (inactive)
2 | CCc1cnn2c(NCc3ccc[n+]([O-])c3)cc(N3CCCC[C@H]3CCO)nc12 [DINACICLIB] | > 30 µM (inactive) | > 30 µM (inactive) | 
3 | CO[C@H]1C[C@@H]2CC[C@@H](C)[C@@](O)(O2)C(=O)C(=O)N2CCCC[C@H]2C(=O)O[C@H]([C@H](C)C[C@@H]2CC[C@@H](OCCO)[C@H](OC)C2)CC(=O)[C@H](C)/C=C(\C)[C@@H](O)[C@@H](OC)C(=O)[C@H](C)C[C@H](C)/C=C/C=C/C=C/1C [EVEROLIMUS] |  |  | Kd [4]: > 30 µM (inactive)
4 | O=C1NC(=O)/C(=C/c2ccc3nccc(-c4ccncc4)c3c2)S1 [GSK-1059615] |  |  | Kd [1]: > 30 µM (inactive)
5 | CC[C@H](Nc1ncnc2[nH]cnc12)c1nc2cccc(F)c2c(=O)n1-c1ccccc1 [IDELALISIB] | > 30 µM (inactive) | > 30 µM (inactive) | 
6 | O=C(O)[C@]1(Cc2cccc(Nc3nccs3)n2)CC[C@@H](Oc2cccc(Cl)c2F)CC1 [MK-5108] |  |  | Kd [5]: > 30 µM (inactive)
7 | CNC(=O)c1cc(Oc2ccc(NC(=O)Nc3ccc(Cl)c(C(F)(F)F)c3)c(F)c2)ccn1 [REGORAFENIB] | > 30 µM (inactive) | > 30 µM (inactive) | 
8 | CN1CCC(COc2cnc(-c3cccc(Cn4nc(-c5cccc(C#N)c5)ccc4=O)c3)nc2)CC1 [TEPOTINIB] |  |  | Kd (Actin-related protein 3): > 30 µM (inactive)
9 | CC(=O)Nc1cccc(-n2c(=O)n(C3CC3)c(=O)c3c(Nc4ccc(I)cc4F)n(C)c(=O)c(C)c32)c1 [TRAMETINIB] |  |  | Kd [5]: > 30 µM (inactive)
10 | CC[C@@H]1C(=O)N(C)c2cnc(Nc3ccc(C(=O)N[C@H]4CC[C@H](N5CCN(CC6CC6)CC5)CC4)cc3OC)nc2N1C(C)C [VOLASERTIB] | > 30 µM (inactive) | > 30 µM (inactive) | 
